Data from US20260138970A1, “MODULATORS OF THE CALCIUM SIGNALING CASCADE” (FONDAZIONE TELETHON ETS, priority 2022, published 2026).

Columns and labels:
TMEM16A = assay: Short-circuit current recordings on FRT epithelia with stable expression of TMEM16A; format: cell-based; details: compounds 10 μM; UTP 0.25 μM apical; vs vehicle; FIG. 1C
Experimental: Snapwell supports (3801, Corning) carrying FRT and differentiated HBEC epithelia were mounted in a vertical chamber resembling an Ussing system with internal fluid circulation (EM-CSYS-8, Physiologic Instruments, San Diego, CA, USA). For FRT epithelia, the apical and basolateral hemichambers were filled with solutions of different composition. The apical solution (5 ml) contained (in mM): 63 NaCl, 63 sodium gluconate, 0.38 KH2PO4, 2.13 K2HPO4, 2 CaCl2, 1 MgSO4, 20 Na-Hepes (pH 7.3), and 10 glucose. The basolateral solution (5 ml) instead contained (in mM): 126 KCl, 0.38 KH2PO4, 2.13 K2HPO4, 1 CaCl2, 1 MgSO4, 20 Na-Hepes (pH 7.3), and 10 glucose. Both solutions were continuously bubbled with air and the temperature of the solution was kept at 37° C. For HBECs, the same (bicarbonate-buffered) solution was used in both chambers. The composition of this solution was (in mM): 126 NaCl, 0.38 KH2PO4, 2.13 K2HPO4, 1 MgSO4, 1 CaCl2), 24 NaHCO3, and 10 glucose. Both sides were continuously bubbled with a gas mixture containing 5% CO2 and 95% air. The temperature of the solution was kept at 37° C. throughout the experiment.
Transepithelial voltage was short-circuited with a voltage-clamp (VCC MC8, Physiologic Instruments, San Diego, CA, USA) connected to the apical and basolateral chambers via Ag—AgCl electrodes and agar bridges (2% agar in 1 M KCl). The offset between voltage electrodes and the fluid resistance were cancelled before experiments. The resulting short-circuited current from each channel was recorded on a personal computer with the Acquire & Analize 2.3 software (Physiologic Instruments, San Diego, CA, USA).

ITPR1 = ITPR1 (Homo sapiens, UniProt Q14643); assay: Fluo-4 Ca2+ assay, UTP, HEK293 cells with selective expression of ITPR1 (HEKR1); format: cell-based; design: host or cells: HEKR1 (HEK293); details: compounds 10 μM; UTP 5 μM; FIG. 2C
Experimental: HEK293 cells totally devoid of ITPR expression (HEK3XKO) or with selective expression of ITPR1 (HEKR1), ITPR2 (HEKR2), or ITPR3 (HEKR3), obtained by selective gene ablation, were purchased from Kerafast (catalog number: EURO30, EURO31, EURO32, EURO33) and cultured in a mixture of Dulbecco's Modified Eagle Medium (DMEM, high glucose version) and Ham's F12 (1:1) and supplemented with 10% fetal bovine serum, 2 mM L-glutamine, 100 U/ml penicillin and 100 μg/ml streptomycin.
Experiments were performed using the microplate reader described for the HS-YFP assay. FRT and HEK293 cells were cultured until confluence in 96-well microplates (3603, Corning). Cells were washed 2 times with PBS (150 μl/wash) and then loaded for 1 h at 37° C. with 5 μM Fluo-4/AM (Thermo Fisher Scientific; catalog number: F23917) in PBS containing 10 mM glucose, 0.5 mM sulfinpyrazone, and 1% fetal bovine serum. After loading, cells were washed 2 times with PBS-glucose-sulfinpyrazone (150 μl/wash) and incubated for 20 min at 37° C. with 60 μl of PBS plus 10 mM glucose and 0.5 mM sulfinpyrazone containing compounds of interest at 10 μM final concentration or vehicle. Each well was assayed individually. Fluo-4 fluorescence (500 nm excitation, 535 nm emission) was detected every 200 ms for 16-40 s. Two seconds after the start of fluorescence recording, the reader automatically injected 165 μl of a modified PBS containing 136 mM KCl instead of NaCl. This solution also contained 10 mM glucose, 0.5 mM sulfinpyrazone, and UTP or SLIGR-NH2 (CAS #171436-38-7) at a final concentration that depended on the specific cell type. For UTP we used: 0.25 μM for FRT; 1 μM for HEKR2; 5 μM for HEK3XKO, HEKR1, and HEKR3. For SLIGR-NH2 we used: 10 μM for HEKR1; 4 μM for HEKR2. These concentrations were chosen to elicit ˜20% of maximal effect based on UTP and SLIGR-NH2 dose-response relationships. […] The Fluo-4 fluorescence increase was quantified using a procedure compiled in Microsoft Excel after background subtraction and normalization for the initial value measured before UTP addition.

ITPR1, sequence (Q14643 whole entry): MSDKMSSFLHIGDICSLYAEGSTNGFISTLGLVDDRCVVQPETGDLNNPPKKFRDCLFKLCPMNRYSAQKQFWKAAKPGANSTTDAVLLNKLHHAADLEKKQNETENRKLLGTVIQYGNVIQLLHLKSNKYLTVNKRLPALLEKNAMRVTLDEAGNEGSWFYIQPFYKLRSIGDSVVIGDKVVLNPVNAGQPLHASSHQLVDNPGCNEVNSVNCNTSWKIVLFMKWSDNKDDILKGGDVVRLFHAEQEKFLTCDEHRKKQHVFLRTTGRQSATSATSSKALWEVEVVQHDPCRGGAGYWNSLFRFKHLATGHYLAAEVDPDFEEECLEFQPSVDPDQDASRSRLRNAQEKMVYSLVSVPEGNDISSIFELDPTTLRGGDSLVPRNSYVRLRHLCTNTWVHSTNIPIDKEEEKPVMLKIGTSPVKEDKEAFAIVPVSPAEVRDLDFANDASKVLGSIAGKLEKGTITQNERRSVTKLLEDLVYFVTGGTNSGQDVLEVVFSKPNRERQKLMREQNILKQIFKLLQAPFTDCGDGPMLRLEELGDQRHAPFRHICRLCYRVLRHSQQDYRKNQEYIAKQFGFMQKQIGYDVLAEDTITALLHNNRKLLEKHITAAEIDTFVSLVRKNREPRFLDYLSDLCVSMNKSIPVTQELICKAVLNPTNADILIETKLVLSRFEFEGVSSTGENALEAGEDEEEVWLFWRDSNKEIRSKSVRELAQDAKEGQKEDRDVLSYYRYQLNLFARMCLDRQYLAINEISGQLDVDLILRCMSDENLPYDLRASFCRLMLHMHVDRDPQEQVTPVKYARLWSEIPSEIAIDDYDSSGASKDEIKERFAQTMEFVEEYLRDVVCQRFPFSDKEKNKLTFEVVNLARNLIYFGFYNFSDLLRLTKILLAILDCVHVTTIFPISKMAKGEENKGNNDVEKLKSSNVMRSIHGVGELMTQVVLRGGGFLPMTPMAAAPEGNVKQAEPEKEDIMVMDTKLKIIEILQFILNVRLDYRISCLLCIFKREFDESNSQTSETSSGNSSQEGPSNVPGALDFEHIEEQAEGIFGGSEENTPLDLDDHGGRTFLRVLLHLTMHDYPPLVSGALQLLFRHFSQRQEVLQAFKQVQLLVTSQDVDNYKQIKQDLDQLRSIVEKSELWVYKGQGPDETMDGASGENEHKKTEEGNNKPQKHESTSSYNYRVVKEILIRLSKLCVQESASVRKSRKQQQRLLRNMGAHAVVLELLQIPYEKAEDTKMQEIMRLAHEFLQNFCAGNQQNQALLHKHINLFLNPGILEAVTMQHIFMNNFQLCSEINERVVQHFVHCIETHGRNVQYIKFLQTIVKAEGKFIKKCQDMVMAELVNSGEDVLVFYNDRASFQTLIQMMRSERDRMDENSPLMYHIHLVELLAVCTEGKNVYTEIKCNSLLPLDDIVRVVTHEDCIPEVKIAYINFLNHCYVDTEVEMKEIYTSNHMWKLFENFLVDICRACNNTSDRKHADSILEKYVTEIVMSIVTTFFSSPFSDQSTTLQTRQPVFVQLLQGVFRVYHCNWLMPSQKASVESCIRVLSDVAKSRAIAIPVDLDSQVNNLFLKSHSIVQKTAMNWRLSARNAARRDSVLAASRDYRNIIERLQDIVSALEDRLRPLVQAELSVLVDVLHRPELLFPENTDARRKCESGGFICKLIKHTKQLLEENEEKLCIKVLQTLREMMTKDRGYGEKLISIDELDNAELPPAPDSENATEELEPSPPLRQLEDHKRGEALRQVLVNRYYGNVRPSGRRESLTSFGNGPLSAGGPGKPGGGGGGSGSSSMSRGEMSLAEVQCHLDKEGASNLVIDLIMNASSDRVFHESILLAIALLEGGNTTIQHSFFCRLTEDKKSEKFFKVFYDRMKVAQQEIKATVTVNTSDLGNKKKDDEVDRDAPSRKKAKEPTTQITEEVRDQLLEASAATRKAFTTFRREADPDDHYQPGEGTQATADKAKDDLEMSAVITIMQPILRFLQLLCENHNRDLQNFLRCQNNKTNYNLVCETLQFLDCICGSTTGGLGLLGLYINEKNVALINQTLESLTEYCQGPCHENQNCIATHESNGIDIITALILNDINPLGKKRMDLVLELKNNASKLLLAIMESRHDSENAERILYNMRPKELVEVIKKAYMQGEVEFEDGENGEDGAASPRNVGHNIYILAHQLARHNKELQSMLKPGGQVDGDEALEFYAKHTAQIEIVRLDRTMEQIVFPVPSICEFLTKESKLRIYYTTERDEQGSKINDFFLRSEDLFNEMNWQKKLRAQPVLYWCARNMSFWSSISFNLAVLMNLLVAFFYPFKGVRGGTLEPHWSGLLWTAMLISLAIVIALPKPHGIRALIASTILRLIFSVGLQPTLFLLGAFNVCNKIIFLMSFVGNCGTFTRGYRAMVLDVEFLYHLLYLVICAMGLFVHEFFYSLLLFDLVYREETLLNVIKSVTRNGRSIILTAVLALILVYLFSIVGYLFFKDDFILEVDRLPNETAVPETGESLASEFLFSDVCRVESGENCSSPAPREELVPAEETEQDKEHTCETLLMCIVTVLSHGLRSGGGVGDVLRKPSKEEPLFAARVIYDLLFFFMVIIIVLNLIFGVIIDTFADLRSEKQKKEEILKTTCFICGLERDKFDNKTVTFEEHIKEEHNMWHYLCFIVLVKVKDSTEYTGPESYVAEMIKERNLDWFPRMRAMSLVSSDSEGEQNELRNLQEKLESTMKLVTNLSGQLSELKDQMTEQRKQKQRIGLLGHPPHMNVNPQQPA

SMILES	peak of Cl- current elicited by UTP (short-circuit current) (TMEM16A)	potentiation of UTP-elicited Ca2+ increase, ITPR1-only cells (ITPR1)
OCc1ccccc1CN(Cc1ccnc(N2CCCC2)n1)c1ccc(F)cc1 [ARN4550, [2-[[4-Fluoro-N-[(2-pyrrolidin-1-ylpyrimidin-4-yl)methyl]anilino]methyl]phenyl]methanol]	significantly enhanced	always effective
CCc1cc(-c2cc(NCCCOc3ccccc3C)nc(N)n2)n(C)n1 [ARN7149, 6-(3-Ethyl-1-methyl-1H-pyrazol-5-yl)-N^4-(3-(o-tolyloxy)propyl)pyrimidine-2,4-diamine]	significantly enhanced	always effective
CCn1nc2c(c1C(=O)Nc1ccccc1OCC1CCCCO1)CCCC2 (stereo not drawn) [ARN11391, 2-Ethyl-N-[2-(tetrahydropyran-2-ylmethoxy)phenyl]-4,5,6,7-tetrahydroindazole-3-carboxamide]	significantly enhanced	effective
